Reference: patent US20230085307A1, “PYRIDAZINONE COMPOUND AND HERBICIDE” (NISSAN CHEMICAL CORPORATION, priority 2019, published 2023)

Experiments:
lambsquarters [1] = experiment: Test Example 4: herbicidal effect by soil treatment (Table 19, symbol O); format: in vivo, lambsquarters (Chenopodium album); settings: amount of applied herbicide 320 g/ha
How it was run: (§1)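 Pre-emergence style soil spray: seeds under ~1.5 cm sterilized diluvial soil received a uniform coat of emulsion diluted to the predetermined herbicide amount. Greenhouse 25–30° C; readout at week three on previously defined criteria.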

persian speedwell [2] = experiment: Test Example 4: herbicidal effect by soil treatment (Table 19, symbol R); format: in vivo, Persian speedwell (Veronica persica); settings: amount of applied herbicide 320 g/ha
How it was run: as §1

chickweed [3] = experiment: Test Example 5: herbicidal effect by foliage application, plastic box (Table 20, symbol P); format: in vivo, common chickweed (Stellaria media); settings: foliage application, 320 g/ha, evaluated three weeks after application
How it was run: (§2)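 Plants were sown into sterilized diluvial soil under about 1.5 cm cover and kept in a greenhouse at 25° C. to 30° C. Fourteen days on, foliage received an even spray of the diluted emulsion. Herbicidal or crop effect was judged three weeks afterwards.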

redroot pigweed [4] = experiment: Test Example 4: herbicidal effect by soil treatment (Table 19, symbol N); format: in vivo, redroot pigweed (Amaranthus retroflexus); settings: amount of applied herbicide 320 g/ha
How it was run: as §1

lambsquarters [5] = experiment: Test Example 5: herbicidal effect by foliage application, plastic box (Table 20, symbol O); format: in vivo, lambsquarters (Chenopodium album); settings: foliage application, 320 g/ha, evaluated three weeks after application
How it was run: as §2

velvetleaf [6] = experiment: Test Example 5: herbicidal effect by foliage application, plastic box (Table 20, symbol M); format: in vivo, velvetleaf (Abutilon theophrasti); settings: foliage application, 320 g/ha, evaluated three weeks after application
How it was run: as §2

green foxtail [7] = experiment: Test Example 4: herbicidal effect by soil treatment (Table 19, symbol G); format: in vivo, green foxtail (Setaria viridis); settings: amount of applied herbicide 320 g/ha
How it was run: as §1

Italian ryegrass [8] = experiment: Test Example 5: herbicidal effect by foliage application, plastic box (Table 20, symbol K); format: in vivo, Italian ryegrass (Lolium multiflorum); settings: foliage application, 320 g/ha, evaluated three weeks after application
How it was run: as §2

green foxtail [9] = experiment: Test Example 5: herbicidal effect by foliage application, plastic box (Table 20, symbol G); format: in vivo, green foxtail (Setaria viridis); settings: foliage application, 320 g/ha, evaluated three weeks after application
How it was run: as §2

barnyard grass [10] = experiment: Test Example 5: herbicidal effect by foliage application, plastic box (Table 20, symbol H); format: in vivo, barnyard grass (Echinochloa crus-galli); settings: foliage application, 320 g/ha, evaluated three weeks after application
How it was run: as §2

wild oat [11] = experiment: Test Example 5: herbicidal effect by foliage application, plastic box (Table 20, symbol I); format: in vivo, wild oat (Avena fatua); settings: foliage application, 320 g/ha, evaluated three weeks after application
How it was run: as §2

barnyard grass [12] = experiment: Test Example 3: herbicidal effect by foliage application, Wagner pot (Table 18, symbol H); format: in vivo, barnyard grass (Echinochloa crus-galli); settings: amount of applied herbicide 320 g/ha
How it was run: (§3)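 Plants were sown in alluvial soil held under 0.1–0.5 cm standing water and grown 14 days in a greenhouse at 25–30 °C. An emulsifiable formulation, water-diluted to the set dose, was then sprayed onto the foliage, and effects were scored three weeks later using previously defined criteria.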

chickweed [13] = experiment: Test Example 4: herbicidal effect by soil treatment (Table 19, symbol P); format: in vivo, common chickweed (Stellaria media); settings: amount of applied herbicide 320 g/ha
How it was run: as §1

southern crabgrass [14] = experiment: Test Example 5: herbicidal effect by foliage application, plastic box (Table 20, symbol F); format: in vivo, southern crabgrass (Digitaria ciliaris); settings: foliage application, 320 g/ha, evaluated three weeks after application
How it was run: as §2

persian speedwell [15] = experiment: Test Example 5: herbicidal effect by foliage application, plastic box (Table 20, symbol R); format: in vivo, Persian speedwell (Veronica persica); settings: foliage application, 320 g/ha, evaluated three weeks after application
How it was run: as §2

southern crabgrass [16] = experiment: Test Example 4: herbicidal effect by soil treatment (Table 19, symbol F); format: in vivo, southern crabgrass (Digitaria ciliaris); settings: amount of applied herbicide 320 g/ha
How it was run: as §1

Italian ryegrass [17] = experiment: Test Example 4: herbicidal effect by soil treatment (Table 19, symbol K); format: in vivo, Italian ryegrass (Lolium multiflorum); settings: amount of applied herbicide 320 g/ha
How it was run: as §1

velvetleaf [18] = experiment: Test Example 4: herbicidal effect by soil treatment (Table 19, symbol M); format: in vivo, velvetleaf (Abutilon theophrasti); settings: amount of applied herbicide 320 g/ha
How it was run: as §1

barnyard grass [19] = experiment: Test Example 4: herbicidal effect by soil treatment (Table 19, symbol H); format: in vivo, barnyard grass (Echinochloa crus-galli); settings: amount of applied herbicide 320 g/ha
How it was run: as §1

Chinese sprangletop = experiment: Test Example 3: herbicidal effect by foliage application, Wagner pot (Table 18, symbol D); format: in vivo, chinese sprangletop (Leptochloa chinensis); settings: amount of applied herbicide 320 g/ha
How it was run: as §3

wild oat [20] = experiment: Test Example 4: herbicidal effect by soil treatment (Table 19, symbol I); format: in vivo, wild oat (Avena fatua); settings: amount of applied herbicide 320 g/ha
How it was run: as §1

windgrass [21] = experiment: Test Example 4: herbicidal effect by soil treatment (Table 19, symbol L); format: in vivo, windgrass (Apera spica-venti); settings: amount of applied herbicide 320 g/ha
How it was run: as §1

redroot pigweed [22] = experiment: Test Example 5: herbicidal effect by foliage application, plastic box (Table 20, symbol N); format: in vivo, redroot pigweed (Amaranthus retroflexus); settings: foliage application, 320 g/ha, evaluated three weeks after application
How it was run: as §2

windgrass [23] = experiment: Test Example 5: herbicidal effect by foliage application, plastic box (Table 20, symbol L); format: in vivo, windgrass (Apera spica-venti); settings: foliage application, 320 g/ha, evaluated three weeks after application
How it was run: as §2

blackgrass = experiment: Test Example 5: herbicidal effect by foliage application, plastic box (Table 20, symbol J); format: in vivo, blackgrass (Alopecurus myosuroides); settings: foliage application, 320 g/ha, evaluated three weeks after application
How it was run: as §2

rice flat sedge = experiment: Test Example 3: herbicidal effect by foliage application, Wagner pot (Table 18, symbol E); format: in vivo, rice flat sedge (Cyperus iria); settings: amount of applied herbicide 320 g/ha
How it was run: as §3

COCCOC(=O)Oc1c(C)nn(C)c(=O)c1-c1c(-c2ccc(F)cc2OC)sc2ccc(Cl)cc12 [2-114]
O: lambsquarters, herbicidal effect rating (lambsquarters [1]): 3 (Herbicidal rate of 40% or more and less than 70%)
R: persian speedwell, herbicidal effect rating (persian speedwell [2]): 0 (Herbicidal rate of 5% or less (almost no effect))
herbicidal effect on P: chickweed (chickweed [3]): 5 (Herbicidal rate of 90% or more (almost completely withered))
N: redroot pigweed, herbicidal effect rating (redroot pigweed [4]): 5 (Herbicidal rate of 90% or more (almost completely withered))
herbicidal effect on O: lambsquarters (lambsquarters [5]): 3 (Herbicidal rate of 40% or more and less than 70%)
herbicidal effect on M: velvetleaf (velvetleaf [6]): 3 (Herbicidal rate of 40% or more and less than 70%)
G: green foxtail, herbicidal effect rating (green foxtail [7]): 0 (Herbicidal rate of 5% or less (almost no effect))
herbicidal effect on K: Italian ryegrass (Italian ryegrass [8]): 0 (Herbicidal rate of 5% or less (almost no effect))
herbicidal effect on G: green foxtail (green foxtail [9]): 1 (Herbicidal rate of 5% or more and less than 20%)
herbicidal effect on H: barnyard grass (barnyard grass [10]): 3 (Herbicidal rate of 40% or more and less than 70%)
herbicidal effect on I: wild oat (wild oat [11]): 0 (Herbicidal rate of 5% or less (almost no effect))
herbicidal effect on H: barnyard grass (barnyard grass [12]): 4 (Herbicidal rate of 70% or more and less than 90%)
P: chickweed, herbicidal effect rating (chickweed [13]): 4 (Herbicidal rate of 70% or more and less than 90%)
herbicidal effect on F: southern crabgrass (southern crabgrass [14]): 0 (Herbicidal rate of 5% or less (almost no effect))
herbicidal effect on R: persian speedwell (persian speedwell [15]): 3 (Herbicidal rate of 40% or more and less than 70%)
F: southern crabgrass, herbicidal effect rating (southern crabgrass [16]): 0 (Herbicidal rate of 5% or less (almost no effect))
K: Italian ryegrass, herbicidal effect rating (Italian ryegrass [17]): 0 (Herbicidal rate of 5% or less (almost no effect))
M: velvetleaf, herbicidal effect rating (velvetleaf [18]): 0 (Herbicidal rate of 5% or less (almost no effect))
H: barnyard grass, herbicidal effect rating (barnyard grass [19]): 0 (Herbicidal rate of 5% or less (almost no effect))
herbicidal effect on D: Chinese sprangletop (Chinese sprangletop): 3 (Herbicidal rate of 40% or more and less than 70%)
I: wild oat, herbicidal effect rating (wild oat [20]): 0 (Herbicidal rate of 5% or less (almost no effect))
L: windgrass, herbicidal effect rating (windgrass [21]): 0 (Herbicidal rate of 5% or less (almost no effect))
herbicidal effect on N: redroot pigweed (redroot pigweed [22]): 1 (Herbicidal rate of 5% or more and less than 20%)
herbicidal effect on L: windgrass (windgrass [23]): 4 (Herbicidal rate of 70% or more and less than 90%)
herbicidal effect on J: blackgrass (blackgrass): 4 (Herbicidal rate of 70% or more and less than 90%)
herbicidal effect on E: rice flat sedge (rice flat sedge): 5 (Herbicidal rate of 90% or more (almost completely withered))
